Measured values as given in US10513520B2, “Sulfamide and sulfamate inhibitors of hHint1” (Regents of the University of Minnesota, priority 2016, dated 2019).
Where a name gives a salt, the structure may show the parent alone. Read-outs that look alike come from different tables or passages of the source.

Key:
hHint1 [1] = biological target: T1, hHint1 (Homo sapiens (Human), UniProt P49773); assay: Isothermal titration calorimetry (ITC) of hHint1-ligand complexes; assay type: binding; settings: for Kd / ΔG / ΔH / −TΔS: ITC, hHint1; for Kd: 20° C.
Experimental: Isothermal Titration Calorimetry (ITC) ITC experiments were conducted on a MicroCal Auto-ITC200 system (GE Healthcare life sciences). […] To determine the dissociation constant of stock concentration (300-400 uM) of inhibitors was titrated with 15-20 uM of Hint1. Twenty injections of ligand were injected (injection volume 2 ul) into the protein cell. […] The in vitro binding affinity of the new series was evaluated of analogues for hHint1 using isothermal calorimetry (ITC).

[2] = Solubility (aqueous buffers, water, DMSO); assay type: physicochemical
From the text: Replacement of the 5′-oxygen atom in the acyl-sulfamate with a nitrogen affords an acyl-sulfamide backbone, which increases the pKa of the backbone NH by 2-3 units.

ICR mice [3] = assay: Inhibition of morphine inhibition of NMDA-evoked scratching and biting behavior; assay type: in vivo, mouse; settings: male mice, intrathecal pretreatment before morphine and NMDA
Experimental: Male ICR mice (25-30) were given TpGc (10 nmol) 10 minutes before morphine sulfate (10 nmol) intrathecally. After a period of 10 minutes, NMDA was injected intrathecally and scratching and biting behaviors were quantified. The MPE % was calculated using morphine alone as the positive control.
Male mice were given intrathecal treatment of either morphine or morphine+a HINT1 inhibitor. They were then given an intrathecal injection of NMDA and scratching and biting behaviors were counted for 1 minute. […]

ICR mice [4] = assay: Spared nerve injury (SNI), von Frey mechanical threshold testing; assay type: in vivo, mouse; settings: for SNI-induced mechanical hypersensitivity, injection on day 7 following injury: 1 nmol intrathecally 7 days post spared nerve injury; for SNI-induced mechanical hypersensitivity, pretreatment: 1 nmol intrathecally prior to spared nerve injury
Experimental: Male and Female ICR mice (25-30 g) were given 1 nmol of TpGc prior to (Panel A) or 7 days post (Panel B) spared nerve injury. A separate cohort (Panel C) of male ICR mice (25-50 g) were given 1 nmol of compound 7 intrathecally both prior to and 7 days post spared nerve injury. All cohorts were evaluated with Von Frey mechanical threshold testing.
Male and female ICR mice were given 1 nmol of HINT1 inhibitor TpGc or 7 intrathecally either immediately prior to or 7 days following induction of neuropathic pain via spared nerve injury (Decosterd, 2000). Briefly, an incision is made into the leg of the mouse directly above the branching of the sciatic nerve. The peroneal and tibial branches of the nerve are ligated and cut while the sural branch is left intact, leading to a localized hypersensitivity on the lateral portion of the hindpaw. Von Frey mechanical testing was performed prior to surgery and for up to 7 days post surgery.

ICR mice [5] = assay: Development of morphine analgesic tolerance, tail flick assay; assay type: in vivo, mouse; settings: HINT1 inhibitor+morphine intrathecally for 3 days, morphine challenge on Day 4
hHint1 [6] = biological target: T1, hHint1; assay: Fluorescence assay of hHint1 activity at fixed saturating substrate concentration; assay type: biochemical
From the text: The effect of a non-hydrolyzable nucleotide analog Bio-AMS was compared with compound 3 on the activity of hHint1 using a fluorescence assay described previously.^3
Isothermal titration calorimetry (ITC) was used to investigate the nature of non-covalent interactions on the inhibitory activity of Bio-AMS on hHint1.

hHint1 [7] = biological target: T1, hHint1; settings: ITC, cited from earlier work
mice [8] = settings: icv, cited from earlier work
mice [9] = settings: single icv administration, CCI mice, cited from earlier work
[10] = data adapted from Garzon et al.

T1 sequence (P49773 whole entry): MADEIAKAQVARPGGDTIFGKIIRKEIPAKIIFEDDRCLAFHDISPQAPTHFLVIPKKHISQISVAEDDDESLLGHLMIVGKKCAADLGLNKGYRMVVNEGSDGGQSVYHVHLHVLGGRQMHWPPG

Kd (hHint1 [1]) [nM]	ΔG (hHint1 [1]) [kcal/mol]	ΔH (hHint1 [1]) [kcal/mol]	−TΔS (hHint1 [1]) [kcal/mol]	stock solutions easily prepared in aqueous buffers [2]	Compound	ED50, attenuation of morphine's inhibition of NMDA-evoked behavior (ICR mice [3]) [nM]	SNI-induced mechanical hypersensitivity, injection on day 7 following injury (ICR mice [4])	SNI-induced mechanical hypersensitivity, pretreatment (ICR mice [4])	morphine potency and efficacy after tolerance development protocol (ICR mice [5])	further results
2900 ± 250	-5.81 ± 1.0	-13.59 ± 1.12	7.71 ± 0.27	up to 5 mM	CCCC(=O)NS(=O)(=O)OC[C@H]1O[C@@H](n2cnc3c(=O)[nH]c(N)nc32)C(O)C1O (stereo partly drawn) [Compound 5]					decrease in the enthalpy of binding (hHint1 [1]; compared with compound 4): ~2 kcal/mol; fold greater dissociation constant in comparison to 4 (hHint1 [1]; compared with compound 4): 3-4 fold
	-8.46 ± 0.4	-16.51 ± 0.17	8.05 ± 0.88	up to 5 mM	Nc1nc2c(ncn2[C@@H]2O[C@H](COS(=O)(=O)NC(=O)CCc3c[nH]c4ccccc34)C(O)[C@@H]2O)c(=O)[nH]1 (stereo partly drawn) [Compound 4, 5′-O—[N-(3-Indolepropionic acid)sulfamoyl] Guanosine Triethylammonium Salt]					fold increase in binding affinity over compound 3 (hHint1 [1]; compared with compound 3): 4.5 fold
810 ± 110					Nc1nc2c(ncn2C2OC(COS(=O)(=O)NC(=O)CCc3c[nH]c4ccccc34)C(O)C2O)c(=O)[nH]1 (single isomer, unassigned) [Compound 4, 5′-O—[N-(3-Indolepropionic acid)sulfamoyl] Guanosine Triethylammonium Salt]					
					Nc1nc2c(ncn2[C@@H]2O[C@H](COC(=O)NCCc3c[nH]c4ccccc34)[C@@H](O)[C@H]2O)c(=O)[nH]1 [Compound 3, guanosine-5′-tryptamine carbamate]	0.61	transient reversal of mechanical hypersensitivity	sustained attenuation of SNI-induced mechanical hypersensitivity	equivalent potency and efficacy compared to the saline pre-treatment	IC50 (hHint1 [6]): 25500 ± 6000 nM; aqueous solubility ([2]; in words): poor solubility; ΔG (hHint1 [7]; [10]): -4.1 ± 2.0 kcal/mol; ΔH (hHint1 [7]; [10]): -13.54 ± 1.00 kcal/mol; −TΔS (hHint1 [7]; [10]): 9.54 ± 4.17 kcal/mol; Kd (hHint1 [7]; data adapted from previously published result by Garzon et al.): 3650 ± 1000 nM; effect on development of morphine tolerance (mice [8]; listed as TpGc): reduced the development of acute tolerance; effect on morphine analgesia / antinociception (mice [8]; listed as TpGc): potentiated morphine-evoked antinociception; effect on development of morphine tolerance (mice [8]): rescues and prevents the development of NMDAR mediated morphine tolerance; effect on morphine analgesia / antinociception (mice [8]): enhances morphine analgesia; mechanical allodynia (mice [9]): reduce mechanical allodynia in animals for several days; mechanical allodynia (mice [9]; listed as TpGc): significant attenuation of mechanical allodynia that persisted for several days
920 ± 70	-8.24 ± 0.12	-14.75 ± 0.12	6.57 ± 0.17	up to 5 mM	Nc1nc2c(ncn2[C@@H]2O[C@H](CNS(=O)(=O)NC(=O)CCc3c[nH]c4ccccc34)C(O)C2O)c(=O)[nH]1 (stereo partly drawn) [Compound 6, 5′-N—[N-(3-Indolepropionic acid)sulfamoyl] Guanosine Triethylammonium Salt]					

Compound	Kd (hHint1 [1]) [nM]	ΔG (hHint1 [1]) [kcal/mol]	ΔH (hHint1 [1]) [kcal/mol]	−TΔS (hHint1 [1]) [kcal/mol]	stock solutions easily prepared in aqueous buffers [2]	ED50, attenuation of morphine's inhibition of NMDA-evoked behavior (ICR mice [3]) [nM]	SNI-induced mechanical hypersensitivity, injection on day 7 following injury (ICR mice [4])	SNI-induced mechanical hypersensitivity, pretreatment (ICR mice [4])	morphine potency and efficacy after tolerance development protocol (ICR mice [5])	further results
O=C(CCc1c[nH]c2ccccc12)NS(=O)(=O)OC[C@H]1O[C@@H](n2cnc3c2ncn2ccnc32)[C@@H](O)C1O (stereo partly drawn) [Compound 7, 5′-O—[N-(3-Indolepropionic acid)sulfamoyl]EthenoAdenosine Triethylammonium Salt]					≤ 20 mM	0.47	transient reversal that resolved at 4 hours post injection	did not lead to an attenuation of pain behavior	equivalent potency and efficacy compared to the saline pre-treatment	
